Measured values published in patent publication US10806785B2, “Immunomodulator compounds and methods of use” (Incyte Corporation, priority 2016, dated 2020).

Biological target: PD-1/PD-L1 (Homo sapiens (Human), UniProt Q9NZQ7)
Experiment: PD-1/PD-L1 binding assay (HTRF)
Protocol: The assays were conducted in a standard black 384-well polystyrene plate with a final volume of 20 μL. Inhibitors were first serially diluted in DMSO and then added to the plate wells before the addition of other reaction components. The final concentration of DMSO in the assay was 1%. The assays were carried out at 25° C. in the PBS buffer (pH 7.4) with 0.05% Tween-20 and 0.1% BSA. Recombinant human PD-L1 protein (19-238) with a His-tag at the C-terminus was purchased from AcroBiosystems (PD1-H5229). Recombinant human PD-1 protein (25-167) with Fc tag at the C-terminus was also purchased from AcroBiosystems (PD1-H5257). PD-L1 and PD-1 proteins were diluted in the assay buffer and 10 μL was added to the plate well. Plates were centrifuged and proteins were preincubated with inhibitors for 40 minutes. The incubation was followed by the addition of 10 μL of HTRF detection buffer supplemented with Europium cryptate-labeled anti-human IgG (PerkinElmer-AD0212) specific for Fc and anti-His antibody conjugated to SureLight®-Allophycocyanin (APC, PerkinElmer-AD0059H). After centrifugation, the plate was incubated at 25° C. for 60 min. before reading on a PHERAstar FS plate reader (665 nm/620 nm ratio). Final concentrations in the assay were […], 10 nM PD-L1, 1 nM europium anti-human IgG and 20 nM anti-His-Allophycocyanin. IC50 determination was performed by fitting the curve of percent control activity versus the log of the inhibitor concentration using the GraphPad Prism 5.0 software.

PD-1/PD-L1, sequence (Q9NZQ7 19-238): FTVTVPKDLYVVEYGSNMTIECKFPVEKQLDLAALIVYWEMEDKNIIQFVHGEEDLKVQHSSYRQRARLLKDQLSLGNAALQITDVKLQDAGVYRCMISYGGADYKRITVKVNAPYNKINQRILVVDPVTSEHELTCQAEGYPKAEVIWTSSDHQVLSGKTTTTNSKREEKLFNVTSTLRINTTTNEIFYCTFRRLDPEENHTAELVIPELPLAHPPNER

Row | Compound | IC50 [nM]
1 | Cn1c(C(=O)Nc2cccc(-c3cccc(-c4nc5c(o4)CN(C(=O)CN4CC(O)C4)C5)c3Cl)c2Cl)nc2c1CCN(CCC1CCC(C(=O)O)CC1)C2 (centres unmarked) [Compound 170, 4-(2-(2-(2,2′-dichloro-3′-(5-(2-(3-hydroxyazetidin-1-yl)acetyl)-5,6-dihydro-4H-pyrrolo[3,4-d]oxazol-2-yl)biphenyl-3-ylcarbamoyl)-1-methyl-6,7-dihydro-1H-imidazo[4,5-c]pyridin-5(4H)-yl)ethyl)cyclohexane-1-carboxylic acid] | ≤ 10
2 | Cn1c(C(=O)Nc2cccc(-c3cccc(-c4nc5c(o4)CN(C(=O)CN4CC[C@@H](O)C4)C5)c3Cl)c2Cl)nc2c1CCN(CCC1CCC(C(=O)O)CC1)C2 (stereo partly drawn) [Compound 171, (R)-4-(2-(2-(2,2′-dichloro-3′-(5-(2-(3-hydroxypyrrolidin-1-yl)acetyl)-5,6-dihydro-4H-pyrrolo[3,4-d]oxazol-2-yl)biphenyl-3-ylcarbamoyl)-1-methyl-6,7-dihydro-1H-imidazo[4,5-c]pyridin-5(4H)-yl)ethyl)cyclohexane-1-carboxylic acid] | ≤ 10
3 | CCN(C)CC(=O)N1Cc2nc(-c3cccc(-c4cccc(NC(=O)c5nc6c(n5C)CCN(C[C@H]5CC[C@H](C(=O)O)CC5)C6)c4Cl)c3Cl)oc2C1 [Compound 172, trans-4-((2-((2,2′-dichloro-3′-(5-(N-ethyl-N-methylglycyl)-5,6-dihydro-4H-pyrrolo[3,4-d]oxazol-2-yl)-[1,1′-biphenyl]-3-yl)carbamoyl)-1-methyl-1,4,6,7-tetrahydro-5H-imidazo[4,5-c]pyridin-5-yl)methyl)cyclohexane-1-carboxylic acid] | ≤ 10
4 | CCN(C)CC(=O)N1Cc2nc(-c3cccc(-c4cccc(NC(=O)c5nc6c(n5C)CCN(C5CCC(C)(C(=O)O)CC5)C6)c4C)c3C)oc2C1 (centres unmarked) [Compound 173, 4-(2-((3′-(5-(N-ethyl-N-methylglycyl)-5,6-dihydro-4H-pyrrolo[3,4-d]oxazol-2-yl)-2,2′-dimethyl-[1,1′-biphenyl]-3-yl)carbamoyl)-1-methyl-1,4,6,7-tetrahydro-5H-imidazo[4,5-c]pyridin-5-yl)-1-methylcyclohexane-1-carboxylic acid] | ≤ 10
5 | CCN(C)CCC(=O)N1Cc2nc(-c3cccc(-c4cccc(NC(=O)c5nc6c(n5C)CCN(C5CCC(C)(C(=O)O)CC5)C6)c4Cl)c3Cl)oc2C1 (centres unmarked) [Compound 174, 4-(2-((2,2′-dichloro-3′-(5-(3-(ethyl(methyl)amino)propanoyl)-5,6-dihydro-4H-pyrrolo[3,4-d]oxazol-2-yl)-[1,1′-biphenyl]-3-yl)carbamoyl)-1-methyl-1,4,6,7-tetrahydro-5H-imidazo[4,5-c]pyridin-5-yl)-1-methylcyclohexane-1-carboxylic acid] | ≤ 10
6 | CCN1CCc2c(nc(C(=O)Nc3cccc(-c4cccc(NC(=O)c5nc6c(n5C)CCN(CC57CCC(C(=O)O)(CC5)C7)C6)c4Cl)c3Cl)n2C)C1 [Compound 176, 4-((2-(2,2′-dichloro-3′-(5-ethyl-1-methyl-4,5,6,7-tetrahydro-1H-imidazo[4,5-c]pyridine-2-carboxamido)biphenyl-3-ylcarbamoyl)-1-methyl-6,7-dihydro-1H-imidazo[4,5-c]pyridin-5(4H)-yl)methyl)bicyclo[2.2.1]heptane-1-carboxylic acid] | ≤ 10
7 | CC(C)N1CCc2c(nc(C(=O)Nc3cccc(-c4cccc(NC(=O)c5nc6c(n5C)CCN(CC57CCC(C(=O)O)(CC5)C7)C6)c4Cl)c3Cl)n2C)C1 [Compound 177, 4-((2-(2,2′-dichloro-3′-(5-isopropyl-1-methyl-4,5,6,7-tetrahydro-1H-imidazo[4,5-c]pyridine-2-carboxamido)biphenyl-3-ylcarbamoyl)-1-methyl-6,7-dihydro-1H-imidazo[4,5-c]pyridin-5(4H)-yl)methyl)bicyclo[2.2.1]heptane-1-carboxylic acid] | ≤ 10
8 | Cn1c(C(=O)Nc2cccc(-c3cccc(NC(=O)c4nc5c(n4C)CCN(C4CCC4)C5)c3Cl)c2Cl)nc2c1CCN(CC13CCC(C(=O)O)(CC1)C3)C2 [Compound 178, 4-((2-(2,2′-dichloro-3′-(5-cyclobutyl-1-methyl-4,5,6,7-tetrahydro-1H-imidazo[4,5-c]pyridine-2-carboxamido)biphenyl-3-ylcarbamoyl)-1-methyl-6,7-dihydro-1H-imidazo[4,5-c]pyridin-5(4H)-yl)methyl)bicyclo[2.2.1]heptane-1-carboxylic acid] | ≤ 10
9 | Cn1c(C(=O)Nc2cccc(-c3cccc(NC(=O)c4nc5c(n4C)CCN(C4CCOCC4)C5)c3Cl)c2Cl)nc2c1CCN(CC13CCC(C(=O)O)(CC1)C3)C2 [Compound 179, 4-((2-(2,2′-dichloro-3′-(1-methyl-5-(tetrahydro-2H-pyran-4-yl)-4,5,6,7-tetrahydro-1H-imidazo[4,5-c]pyridine-2-carboxamido)biphenyl-3-ylcarbamoyl)-1-methyl-6,7-dihydro-1H-imidazo[4,5-c]pyridin-5(4H)-yl)methyl)bicyclo[2.2.1]heptane-1-carboxylic acid] | 10 to 100
10 | Cn1c(C(=O)Nc2cccc(-c3cccc(NC(=O)c4nc5c(n4C)CCN(CC46CCC(C(=O)O)(CC4)C6)C5)c3Cl)c2Cl)nc2c1CCN(CCO)C2 [Compound 180, 4-((2-(2,2′-dichloro-3′-(5-(2-hydroxyethyl)-1-methyl-4,5,6,7-tetrahydro-1H-imidazo[4,5-c]pyridine-2-carboxamido)biphenyl-3-ylcarbamoyl)-1-methyl-6,7-dihydro-1H-imidazo[4,5-c]pyridin-5(4H)-yl)methyl)bicyclo[2.2.1]heptane-1-carboxylic acid] | ≤ 10
11 | C[C@H](O)CN1CCc2c(nc(C(=O)Nc3cccc(-c4cccc(NC(=O)c5nc6c(n5C)CCN(C)C6)c4Cl)c3Cl)n2C)C1 [Example 27, (S)—N-(2,2′-dichloro-3′-(1,5-dimethyl-4,5,6,7-tetrahydro-1H-imidazo[4,5-c]pyridine-2-carboxamido)biphenyl-3-yl)-5-(2-hydroxypropyl)-1-methyl-4,5,6,7-tetrahydro-1H-imidazo[4,5-c]pyridine-2-carboxamide] | ≤ 10
12 | Cc1c(NC(=O)c2nc3c(n2C)CCN(C2CCN(S(C)(=O)=O)CC2)C3)cccc1-c1cccc(NC(=O)c2nc3c(n2C)CCN(C)C3)c1Cl [Example 28, N-(2-chloro-2′-methyl-3′-(1-methyl-5-(1-(methylsulfonyl)piperidin-4-yl)-4,5,6,7-tetrahydro-1H-imidazo[4,5-c]pyridine-2-carboxamido)biphenyl-3-yl)-1,5-dimethyl-4,5,6,7-tetrahydro-1H-imidazo[4,5-c]pyridine-2-carboxamide] | ≤ 10
13 | Cc1c(NC(=O)c2nc3c(n2C)CCN(C2CCOCC2)C3)cccc1-c1cccc(NC(=O)c2nc3c(n2C)CCN(C)C3)c1Cl [Example 29, N-(2-chloro-2′-methyl-3′-(1-methyl-5-(tetrahydro-2H-pyran-4-yl)-4,5,6,7-tetrahydro-1H-imidazo[4,5-c]pyridine-2-carboxamido)biphenyl-3-yl)-1,5-dimethyl-4,5,6,7-tetrahydro-1H-imidazo[4,5-c]pyridine-2-carboxamide] | ≤ 10
14 | Cc1c(NC(=O)c2nc3c(n2C)CCN(CC2CCOCC2)C3)cccc1-c1cccc(NC(=O)c2nc3c(n2C)CCN(C)C3)c1Cl [Example 30, N-(2-chloro-2′-methyl-3′-(1-methyl-5-((tetrahydro-2H-pyran-4-yl)methyl)-4,5,6,7-tetrahydro-1H-imidazo[4,5-c]pyridine-2-carboxamido)biphenyl-3-yl)-1,5-dimethyl-4,5,6,7-tetrahydro-1H-imidazo[4,5-c]pyridine-2-carboxamide] | ≤ 10
15 | Cc1c(NC(=O)c2nc3c(n2C)CCN(CC2(CO)CC2)C3)cccc1-c1cccc(NC(=O)c2nc3c(n2C)CCN(C)C3)c1Cl [Example 31, N-(2′-chloro-3′-(1,5-dimethyl-4,5,6,7-tetrahydro-1H-imidazo[4,5-c]pyridine-2-carboxamido)-2-methylbiphenyl-3-yl)-5-((1-(hydroxymethyl)cyclopropyl)methyl)-1-methyl-4,5,6,7-tetrahydro-1H-imidazo[4,5-c]pyridine-2-carboxamide] | ≤ 10
16 | Cc1c(NC(=O)c2nc3c(n2C)CCN(C[C@H](O)CO)C3)cccc1-c1cccc(NC(=O)c2nc3c(n2C)CCN(C)C3)c1Cl [Example 32, (S)—N-(2′-chloro-3′-(1,5-dimethyl-4,5,6,7-tetrahydro-1H-imidazo[4,5-c]pyridine-2-carboxamido)-2-methylbiphenyl-3-yl)-5-(2,3-dihydroxypropyl)-1-methyl-4,5,6,7-tetrahydro-1H-imidazo[4,5-c]pyridine-2-carboxamide] | ≤ 10
17 | Cc1c(NC(=O)c2nc3c(n2C)CCN(CC(=O)O)C3)cccc1-c1cccc(NC(=O)c2nc3c(n2C)CCN(C)C3)c1Cl [Example 33, 2-(2-(2′-chloro-3′-(1,5-dimethyl-4,5,6,7-tetrahydro-1H-imidazo[4,5-c]pyridine-2-carboxamido)-2-methylbiphenyl-3-ylcarbamoyl)-1-methyl-6,7-dihydro-1H-imidazo[4,5-c]pyridin-5(4H)-yl)acetic Acid] | ≤ 10
